In PubChem BioAssay (NCI):
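Method: 48-hour compound exposure of cells in 96-well plates, five concentrations, linear interpolation of endpoints. Here, GI50 denotes the concentration required for 50% inhibition of growth. TGI is the concentration that stops growth completely.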

Legend:
Test in all cases: NCI anticancer screen, dose series, 48 h
HCT-15 colon = test system: HCT-15 colon
HL-60(TB) leukemia = test system: HL-60(TB) leukemia
HOP-92 NSCLC = test system: HOP-92 NSCLC
MALME-3M melanoma = test system: MALME-3M melanoma
NCI-H226 lung = test system: NCI-H226 lung
SW-620 colon = test system: SW-620 colon
SF-295 CNS = test system: SF-295 CNS
UACC-62 melanoma = test system: UACC-62 melanoma

| SMILES | GI50 (HCT-15 colon) [µM] | TGI (HCT-15 colon) [µM] | GI50 (HL-60(TB) leukemia) [µM] | TGI (HL-60(TB) leukemia) [µM] | GI50 (HOP-92 NSCLC) [µM] | TGI (HOP-92 NSCLC) [µM] | GI50 (MALME-3M melanoma) [µM] | TGI (MALME-3M melanoma) [µM] | GI50 (NCI-H226 lung) [µM] | TGI (NCI-H226 lung) [µM] | GI50 (SW-620 colon) [µM] | TGI (SW-620 colon) [µM] | GI50 (SF-295 CNS) [µM] | TGI (SF-295 CNS) [µM] | GI50 (UACC-62 melanoma) [µM] | TGI (UACC-62 melanoma) [µM] |
| --- | --- | --- | --- | --- | --- | --- | --- | --- | --- | --- | --- | --- | --- | --- | --- | --- |
| S=C(N/N=C/c1ccccn1)Nc1ccccn1 | 0.575 | > 100 | 0.316 | 1.25 | 0.478 | 6.23 | 1.81 | > 100 | 2.08 | 11.8 | 1.7 | > 100 |  |  |  |  |
| O=C1c2ccccc2-c2c1c1ccccc1c(=O)n2CCNCCNCCn1c2c(c3ccccc3c1=O)C(=O)c1ccccc1-2 | 0.0545 | 1.31 | 98.5 | > 100 | 17.4 | 39.7 | 0.207 | 16.2 | 0.22 | 18.9 | 0.0296 | 1.93 | 0.0917 | 10.8 | 0.338 | 8.79 |
| Cc1cc(S(=O)(=O)Nc2nnc(-c3ccccc3)c(-c3ccccc3)n2)c(SCc2ccccc2)cc1Cl | 20.3 | 43.3 | 34.1 | 67.2 | 18.8 | 47.1 | 16.9 | 38.7 | 27.7 | 79.8 | 20.6 | 44.8 | 19.5 | 38.5 | 16.1 | 30.9 |
| COC(=O)Nc1nc2ccccc2c(=O)[nH]1 |  | > 100 |  | > 100 |  |  |  | > 100 |  | > 100 |  | > 100 |  | > 100 |  | > 100 |
| Cn1c(=O)c2[nH]c(CS(=O)(=O)Cc3nc4c([nH]3)c(=O)n(C)c(=O)n4C)nc2n(C)c1=O |  | > 100 |  | > 100 |  |  |  | > 100 |  | > 100 |  | > 100 |  | > 100 |  | > 100 |
| CCN(CC)CCCCCCCNc1c2ccc(Cl)cc2nc2ccc(OC)cc12 | 0.997 | 6.59 | 1.71 | 3.62 | 1.29 | 3.45 | 2.05 | 4.1 | 1.83 | 4.42 | 0.376 | 1.64 | 0.701 | 2.37 | 2.04 | 4.09 |
| Cc1ccc2c(=O)c3cccc(CC(=O)O)c3oc2c1C | > 100 | > 100 | > 100 | > 100 | > 100 | > 100 | > 100 | > 100 | > 100 | > 100 | > 100 | > 100 | > 100 | > 100 | > 100 | > 100 |
| CCOC(=O)Oc1c(OC)cc(C(=O)O[C@@H]2C[C@@H]3CN4CCc5c([nH]c6cc(OC)ccc56)[C@H]4C[C@@H]3[C@H](C(=O)OC)[C@H]2OC)cc1OC | 2.86 | 13.2 | 3.64 | 15.1 | 3.64 | 18.9 | 6.74 | 27.1 | 15.1 | 58.1 | 3.67 | 19.4 | 10.2 | 31.4 | 6.89 | 20.3 |
| O=c1cc(-c2ccccc2)nc2n1CCN2Cc1ccccc1 | 31.2 | > 100 | 33.1 | 58.2 | 42.8 | > 100 |  |  | 54.7 | > 100 | 39.1 | > 100 | 21.1 | 72.2 | 19.8 | 66.7 |
| CN(C)c1ccc2c3c(c(=O)oc2c1)CCC3 |  | > 100 |  | > 100 |  | > 100 |  |  |  | > 100 |  | > 100 |  | > 100 |  | > 100 |
| Nc1ccccc1C#C/C=C\C#Cc1ccc(Cl)cc1Cl |  |  |  |  | 17 | 48.1 | 1.87 | 17.2 | 19.2 | 39.5 | 34.8 | > 100 | 5.17 | 20 | 14.5 | 31.7 |
| O=C(NC(=S)Nc1ccc(Cl)cc1)c1ccccc1 | > 100 | > 100 | > 100 | > 100 | 8.63 | 68.5 | > 100 | > 100 | > 100 | > 100 | > 100 | > 100 | > 65.1 | > 100 | > 50.4 | > 100 |
| N=C(N)CCCCCCCCC(=N)N | 47.2 | > 100 | 29.5 | > 100 | 19.1 | > 100 | 39.9 | > 100 | 15.7 | > 100 | 32.5 | > 100 | 23.5 | 81.3 | 64.8 | > 100 |
| CCN(CC)CCOc1ccc(/C=C2\CC3C4CC=C5C[C@@H](N6CCCC6)CC[C@]5(C)C4CC[C@]3(C)[C@H]2O)cc1OC (stereo not given in full) | 3.45 | 22.4 | 13.8 | 35.2 | 8.14 | 32.7 | 3.68 | 9.82 | 19.3 | 45.2 | 0.624 | 7.38 | 3.86 | 13.5 | 16.6 | 34.6 |
| COc1cc(/C=C/C(=O)c2ccc(Cl)cc2)ccc1OS(=O)(=O)c1ccc(C)cc1 | 1.74 | 3.81 | 3.29 | 14.8 |  |  | 13.1 | 33.6 | 12.7 | 27.9 | 2.21 | 6.01 | 9.27 | 26.2 | 4.93 | 20.3 |
| C=C1C(=O)OC2CC3(CO3)C3C(O)C(O)CC3(C)CC12 (stereo not given) |  | 34.1 |  | 44.6 |  | 50.7 |  | 37.5 |  | > 100 |  | 32.3 |  | > 100 |  | 38 |
| COc1ccc2[nH]c(Cl)c(/C=C3/C(=O)N(C)c4ccccc43)c2c1 | > 100 | > 100 | > 100 | > 100 | 91.3 | > 100 | > 100 | > 100 | 29.4 | > 100 | 96.6 | > 100 | > 100 | > 100 | 71 | > 100 |
